Results as given in ChEMBL document CHEMBL4340564, “Quercetin-3-oleoyl derivatives as new GPR40 agonists: Molecular docking studies and functional evaluation” (Bioorg Med Chem Lett, 2019).
Calls of active or inactive are those of the source. The calls are words filed in the database; no cut-off is given here.

Columns and labels:
Assay type in all cases: cell-based
[1] = target: Free fatty acid receptor 1 (Homo sapiens) (UniProt O14842); test: Agonist activity at human GPR40 expressed in rat INS1(832/13) cells harboring human proinsulin assessed as increase in glucose-stimulated insulin secretion at 20 to 40 uM incubated for 5 mins by ELISA
Free fatty acid receptor 1 (Homo sapiens), sequence (O14842 whole entry): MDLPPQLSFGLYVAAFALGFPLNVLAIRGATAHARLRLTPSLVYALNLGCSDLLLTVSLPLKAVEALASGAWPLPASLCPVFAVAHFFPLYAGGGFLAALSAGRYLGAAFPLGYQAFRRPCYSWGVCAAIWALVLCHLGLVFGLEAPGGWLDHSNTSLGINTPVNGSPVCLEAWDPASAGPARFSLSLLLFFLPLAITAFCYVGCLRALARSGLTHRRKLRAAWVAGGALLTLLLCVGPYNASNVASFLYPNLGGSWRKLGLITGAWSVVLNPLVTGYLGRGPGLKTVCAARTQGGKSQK

[2] = target: Free fatty acid receptor 1 (Homo sapiens) (UniProt O14842); test: Agonist activity at human GPR40 expressed in rat INS1(832/13) cells harboring human proinsulin assessed as increase in glucose-stimulated insulin secretion at 10 uM incubated for 5 mins in presence of GPR40 antagonist DC260126 by ELISA
[3] = target: Free fatty acid receptor 1 (Homo sapiens) (UniProt O14842); test: Agonist activity at human GPR40 expressed in rat INS1(832/13) cells harboring human proinsulin assessed as increase in glucose-stimulated insulin secretion at 40 uM incubated for 5 mins in presence of GPR40 antagonist DC260126 by ELISA
[4] = target: Free fatty acid receptor 1 (Homo sapiens) (UniProt O14842); test: Partial agonist activity at human GPR40 expressed in rat INS1(832/13) cells harboring human proinsulin assessed as potentiation of 2.5 uM AV1-induced increase in glucose-stimulated insulin secretion at 40 uM by ELISA
[5] = target: Free fatty acid receptor 1 (Homo sapiens) (UniProt O14842); test: Antagonist activity at human GPR40 expressed in rat INS1(832/13) cells harboring human proinsulin assessed as inhibition of 20 uM AV1-induced increase in glucose-stimulated insulin secretion at 21 uM by ELISA
[6] = target: Free fatty acid receptor 1 (Homo sapiens) (UniProt O14842); test: Partial agonist activity at human GPR40 expressed in rat INS1(832/13) cells harboring human proinsulin assessed as potentiation of 2.5 uM AV1-induced increase in glucose-stimulated insulin secretion at 21 uM by ELISA
[7] = target: Free fatty acid receptor 1 (Homo sapiens) (UniProt O14842); test: Antagonist activity at human GPR40 expressed in rat INS1(832/13) cells harboring human proinsulin assessed as inhibition of 20 uM AV1-induced increase in glucose-stimulated insulin secretion at 40 uM by ELISA
[8] = target: Free fatty acid receptor 1 (Homo sapiens) (UniProt O14842); test: Partial agonist activity at human GPR40 expressed in rat INS1(832/13) cells harboring human proinsulin assessed as potentiation of 10 uM AV1-induced increase in glucose-stimulated insulin secretion by ELISA

SMILES | Activity [1] | Activity [2] | Activity [3] | Activity [4] | Activity [5] | Activity [6] | Activity [7] | Activity [8]
CCCCCCCC/C=C\CCCCCCCC(=O)Oc1c(-c2ccc3c(c2)OC(c2ccccc2)(c2ccccc2)O3)oc2cc(O)cc(O)c2c1=O | Active | inactive |  |  |  |  |  | 
CCCCCCCC/C=C\CCCCCCCC(=O)Oc1c(-c2ccc(O)c(O)c2)oc2cc(O)cc(O)c2c1=O | Active |  | inactive | Active | Active | Active | Active | Dose-dependent effect
